Measured values taken from publication PMC10762035, “Molecular basis of human trace amine-associated receptor 1 activation” (Nature Communications, 2024).
Substitutions are numbered along the chain they refer to. Where “and” joins values, the source holds several entries; their conditions need not be identical. Equal values may be shown once. Read-outs that look alike come from different tables or passages of the source.

Assays:
hTA1 C13S = target: T1, hTA1 C13S (Homo sapiens, UniProt Q96RJ0, C13S); experiment: GloSensor cAMP accumulation assay, C13S mutant; format: cell-based; details: for C13S - Normalized Luminescence Counts (N=2): log[Compound], single wells
T1 construct: expressed in transfected cells; host or cells: HEK293T
T1 sequence (Q96RJ0 1-339 C13S): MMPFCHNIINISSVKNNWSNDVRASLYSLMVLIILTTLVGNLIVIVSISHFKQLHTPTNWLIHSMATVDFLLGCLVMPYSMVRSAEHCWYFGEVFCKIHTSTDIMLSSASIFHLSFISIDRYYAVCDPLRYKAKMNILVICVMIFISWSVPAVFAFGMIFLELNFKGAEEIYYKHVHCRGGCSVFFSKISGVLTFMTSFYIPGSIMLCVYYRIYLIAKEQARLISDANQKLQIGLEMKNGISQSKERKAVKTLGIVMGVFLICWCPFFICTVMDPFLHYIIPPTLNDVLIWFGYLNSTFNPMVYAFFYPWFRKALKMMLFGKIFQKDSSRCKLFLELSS

hTA1 T194A = target: T2, hTA1 T194A (Homo sapiens, UniProt Q96RJ0, T194A); experiment: GloSensor cAMP accumulation assay, T194A mutant; details: for cAMP accumulation response, individual replicate values of the concentration-response curve: hTA1 T194A, log[Agonist], Supplementary Figure 5 source data
T2 sequence (Q96RJ0 1-339 T194A): T1 sequence (Q96RJ0 1-339 C13S) with S13C, T194A

hTA1 C5S = target: T3, hTA1 C5S (Homo sapiens, UniProt Q96RJ0, C5S); experiment: GloSensor cAMP accumulation assay, C5S mutant; format: cell-based; details: for C5S - Normalized Luminescence Counts (N=2): log[Compound], single wells
T3 construct: expressed in transfected cells; host or cells: HEK293T
T3 sequence (Q96RJ0 1-339 C5S): T1 sequence (Q96RJ0 1-339 C13S) with C5S, S13C

hTA1 I290Y = target: T4, hTA1 I290Y (Homo sapiens, UniProt Q96RJ0, I290Y); experiment: GloSensor cAMP accumulation assay, I290Y mutant; format: cell-based; details: for cAMP accumulation response, normalized (concentration-response source data, single replicate values): hTA1 I290Y (N=3), log[Compound];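 as to cAMP accumulation response, normalized (concentration-response source data, single replicate values): normalized to the maximum response of β-PEA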
T4 construct: expressed in transfected cells; host or cells: HEK293T
T4 sequence (Q96RJ0 1-339 I290Y): T1 sequence (Q96RJ0 1-339 C13S) with S13C, I290Y

[1] = target: T5, β2AR-Nterm-hTA1-F112^3.41W (CryoEM Construct) (Homo sapiens, UniProt Q96RJ0, F112W); experiment: GloSensor cAMP accumulation assay, cryoEM construct; format: cell-based;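 also: cells transiently co-transfected with the receptor construct and GloSensor cAMP biosensor, luminescence read after 30 min compound exposure at room temperature in the dark as cAMP accumulation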;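 as to Normalized Luminescence Counts (N=2): normalized to the maximum response of β-PEA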
T5 construct: FLAG (N); 10xHis (N); TEV protease site (N); expressed in transfected cells; host or cells: HEK293T

[2] = Cryo EM Construct minus WT average

T5 sequence (Q96RJ0 with tags, fused parts or gaps F112W): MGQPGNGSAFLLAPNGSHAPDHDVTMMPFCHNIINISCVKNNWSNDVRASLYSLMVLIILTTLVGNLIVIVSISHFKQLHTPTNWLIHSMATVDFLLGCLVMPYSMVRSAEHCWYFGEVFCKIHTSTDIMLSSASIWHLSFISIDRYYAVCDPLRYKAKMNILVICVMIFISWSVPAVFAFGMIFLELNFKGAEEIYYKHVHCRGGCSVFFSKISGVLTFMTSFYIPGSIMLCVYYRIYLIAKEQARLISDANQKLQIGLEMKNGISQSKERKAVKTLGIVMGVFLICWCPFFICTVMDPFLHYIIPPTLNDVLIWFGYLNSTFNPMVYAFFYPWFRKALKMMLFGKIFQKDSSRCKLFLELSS

## NCCc1ccc(O)cc1 [TYR, tyramine]
hTA1 C13S; C13S
  ΔpEC50 values (each mutant value - WT average): -0.3688 and -0.3329
hTA1 C13S; C13S, Mean of fit per experiment
  Emax values: 110.911
hTA1 C13S; C13S, Mean of fit per experiment, read-out: Emax values
  Emax: 93.7%
hTA1 C13S; C13S, n=2, read-out: EC50
  EC50: 931 nM
hTA1 C13S; C13S, n=2, read-out: Span ± SEM (Emax normalized to β-PEA)
  Emax: 102 ± 8.61%
hTA1 C13S; hTA1 C13S, mean of 3 replicates, one line per independent experiment, read-out: pEC50 values, Mean (converted)
  EC50: 970 nM and 893 nM
hTA1 C13S; M = -5
  C13S - Normalized Luminescence Counts (N=2): 78.8304 and 97.2912 and 83.436 and 97.1609 and 112.12 and 105.729
hTA1 C13S; M = -5.522
  C13S - Normalized Luminescence Counts (N=2): 59.6843 and 75.6711 and 68.2867 and 72.4375 and 86.5575 and 83.5764
hTA1 C13S; M = -6
  C13S - Normalized Luminescence Counts (N=2): 42.8222 and 56.3728 and 40.1958 and 58.5139 and 61.7985 and 54.8367
hTA1 C13S; M = -6.522
  C13S - Normalized Luminescence Counts (N=2): 23.1813 and 24.6658 and 21.4304 and 27.8641 and 32.7195 and 30.988
hTA1 T194A; T149A (so in the source), single experiments (3 replicates each), β-PEA = 100
  Emax values, Mean: 107.638 and 114.006 and 104.682
hTA1 T194A; T194A
  increase in potency vs wild type: over 10 fold
hTA1 T194A; M = -7.522
  cAMP accumulation response, individual replicate values of the concentration-response curve: 49.8086 and 42.1239 and 66.6609 and 74.3619 and 75.9423 and 70.8058 and 84.4051 and 77.1239 and 72.2846
hTA1 T194A; M = -8
  cAMP accumulation response, individual replicate values of the concentration-response curve: 33.9 and 32.0125 and 38.7535 and 48.6794 and 43.1478 and 39.7894 and 64.0267 and 60.8745 and 66.5574
hTA1 T194A; M = -8.522
  cAMP accumulation response, individual replicate values of the concentration-response curve: 15.6995 and 22.1708 and 14.0817 and 16.28 and 19.441 and 18.4532 and 29.6632 and 30.1959 and 31.2615
hTA1 T194A; M = -9
  cAMP accumulation response, individual replicate values of the concentration-response curve: 1.409 and 7.206 and 6.936 and 8.575 and 6.7973 and 9.5631 and 13.5914 and 13.9909 and 14.0797
hTA1 T194A; M = -9.522
  cAMP accumulation response, individual replicate values of the concentration-response curve: 1.813 and 2.083 and -1.153 and 1.068 and 2.253 and 1.463 and 4.046 and 5.511 and 3.469
hTA1 T194A; M = -10
  cAMP accumulation response, individual replicate values of the concentration-response curve: -1.827 and -1.288 and -1.4224 and 2.056 (2×) and 1.661 and 1.693 and 1.604 and 1.782
hTA1 T194A; M = -10.522
  cAMP accumulation response, individual replicate values of the concentration-response curve: -1.827 and -0.7483 and -1.153 and 0.2779 and -0.3148 and -0.1172 and 1.027 and 0.8937 (2×)
hTA1 T194A; M = -11
  cAMP accumulation response, individual replicate values of the concentration-response curve: -0.4787 and -1.692 and -1.153 and 0.2779 and -1.105 and -1.303 and -0.971 and 0.4497 and 0.1834
hTA1 T194A; M = -11.522
  cAMP accumulation response, individual replicate values of the concentration-response curve: -1.557 and 0.8695 and -1.4224 and -1.105 (2×) and -0.7099 and 0.09457 and 0.05017 and 0.4053
hTA1 T194A; M = -12
  cAMP accumulation response, individual replicate values of the concentration-response curve: -0.7483 (2×) and -1.288 and -0.9074 (2×) and -0.3148 and -0.4826 and -0.1718 and -0.2162
hTA1 T194A; M = -12.522
  cAMP accumulation response, individual replicate values of the concentration-response curve: -0.07421 and 1.139 and 0.4651 and -1.105 (2×) and -0.5123 and -0.08302 and -0.2606 and 0.005772
hTA1 T194A; pEC50 values, Mean, T149A (so in the source), single experiments (3 replicates each)
  EC50: 8.01 nM and 26.8 nM and 14.3 nM
hTA1 T194A; pEC50 ± SEM, T194A
  EC50: 14.5 nM
hTA1 T194A; read-out: Span ± SEM (Emax normalized to β-PEA), T194A
  Emax: 109 ± 4.66%
hTA1 C5S; C5S, n=2, read-out: EC50
  EC50: 418 nM
hTA1 C5S; C5S, n=2, read-out: Span ± SEM (Emax normalized to β-PEA)
  Emax: 97.4 ± 4.98%
hTA1 C5S; hTA1 C5S minus WT average
  ΔpEC50 values (each mutant value - WT average), Mean: 0.08447 and -0.09146
hTA1 C5S; hTA1 C5S, mean of 3 replicates, one line per independent experiment, read-out: pEC50 values, Mean (converted)
  EC50: 342 nM and 512 nM
hTA1 C5S; hTA1 C5S, β-PEA = 100, mean of 3 replicates, one line per independent experiment
  Emax values, Mean: 92.4348
hTA1 C5S; hTA1 C5S, β-PEA = 100, mean of 3 replicates, one line per independent experiment, read-out: Emax values, Mean
  Emax: 102%
hTA1 C5S; M = -5
  C5S - Normalized Luminescence Counts (N=2): 102.862 and 111.578 and 98.7984 and 85.7838 and 116.923 and 74.2532
hTA1 C5S; M = -5.522
  C5S - Normalized Luminescence Counts (N=2): 86.6512 and 89.3832 and 85.861 and 68.3844 and 81.1578 and 69.9034
hTA1 C5S; M = -6
  C5S - Normalized Luminescence Counts (N=2): 78.4779 and 69.4918 and 73.443 and 62.6536 and 54.2301 and 61.4799
hTA1 C5S; M = -6.522
  C5S - Normalized Luminescence Counts (N=2): 44.8815 and 51.1131 and 50.1196 and 36.2784 and 34.207 and 33.0332
hTA1 C5S; M = -7
  C5S - Normalized Luminescence Counts (N=2): 29.0315 and 24.8319 and 26.4576 and 17.7742 and 18.5337 and 19.2242
hTA1 C5S; M = -7.522
  C5S - Normalized Luminescence Counts (N=2): 7.6273 and 8.959 and 8.553 and 6.382 and 5.3461 and 5.829
hTA1 I290Y; I290Y, read-out: EC50
  EC50: 1960 nM
hTA1 I290Y; I290Y, read-out: Span ± SEM (Emax normalized to β-PEA)
  Emax: 99 ± 3.2%
hTA1 I290Y; I290Y, single experiments (3 replicates each), read-out: pEC50 values, Mean (converted)
  EC50: 2120 nM and 1010 nM and 3550 nM
hTA1 I290Y; I290Y, single experiments (3 replicates each), β-PEA = 100
  Emax values, Mean: 103.315 and 92.7474 and 100.92
hTA1 I290Y; M = -5
  cAMP accumulation response, normalized (concentration-response source data, single replicate values): 70.7589 and 112.926 and 76.6069 and 77.3087 and 89.0347 and 68.1478 and 71.4902 and 86.1539 and 63.5944
hTA1 I290Y; M = -5.522
  cAMP accumulation response, normalized (concentration-response source data, single replicate values): 50.1368 and 56.2927 and 58.1394 and 72.545 (2×) and 68.5142 and 46.6748 and 35.395 and 37.651
hTA1 I290Y; M = -6
  cAMP accumulation response, normalized (concentration-response source data, single replicate values): 26.4369 and 46.4433 and 36.2862 and 39.5657 and 32.9698 and 41.0314 and 25.2433 and 19.6034 and 27.4992
hTA1 I290Y; M = -6.522
  cAMP accumulation response, normalized (concentration-response source data, single replicate values): 10.4317 and 18.1265 and 13.2018 and 24.1753 and 16.4801 and 23.4424 and 9.4516 (2×) and 6.068
hTA1 I290Y; M = -7
  cAMP accumulation response, normalized (concentration-response source data, single replicate values): 2.737 and 6.123 and 3.045 and 3.288 (2×) and 0.7233 and 1.556 and -0.7002 and 0.4278
hTA1 I290Y; M = -7.522
  cAMP accumulation response, normalized (concentration-response source data, single replicate values): 0.8902 and 0.2746 and -1.88 and -4.407 and -4.773 and -3.674 and -4.0841 and -1.828 and -2.956
hTA1 I290Y; M = -8
  cAMP accumulation response, normalized (concentration-response source data, single replicate values): -1.264 and 0.8902 and -0.6488 and -2.575 and -3.307 (2×) and -4.0841 (2×) and -5.212
hTA1 I290Y; M = -8.522
  cAMP accumulation response, normalized (concentration-response source data, single replicate values): -1.264 and -0.0332 and 0.5824 and -4.407 and -3.674 and -2.956 (2×) and -4.0841
hTA1 I290Y; M = -9
  cAMP accumulation response, normalized (concentration-response source data, single replicate values): -3.7267 and 0.8902 and -1.88 and 1.823 and 4.021 and -3.674 and -1.828 and -2.956 and -4.0841
hTA1 I290Y; M = -9.522
  cAMP accumulation response, normalized (concentration-response source data, single replicate values): -3.419 and -0.6488 and -1.88 and -6.239 and -4.407 and -2.208 and -2.956 (2×) and -5.212
hTA1 I290Y; M = -10
  cAMP accumulation response, normalized (concentration-response source data, single replicate values): -1.88 and -0.9566 and -1.572 and -6.605 and -4.407 and -2.956 (2×) and -1.828
hTA1 I290Y; M = -10.522
  cAMP accumulation response, normalized (concentration-response source data, single replicate values): -1.572 (2×) and 0.5824
[1]; [2]
  ΔEmax values (each mutant value - WT average), Mean: 14.87 and 14.1384
  ΔpEC50 values (each mutant value - WT average), Mean: 0.1106 and 0.3686
[1]; Cryo EM Construct, mean of each independent experiment (3 replicates)
  Emax values, Mean: 0.3686
[1]; Cryo EM Construct, mean of each independent experiment (3 replicates), read-out: pEC50 values, Mean (converted)
  EC50: 322 nM and 178 nM
[1]; CryoEM Construct, log[Compound], M = -5, single replicates
  Normalized Luminescence Counts (N=2): 108.729 and 109.99 and 112.27 and 114.944
[1]; CryoEM Construct, n=2, read-out: EC50
  EC50: 235 nM
[1]; CryoEM Construct, n=2, read-out: Span ± SEM (Emax normalized to β-PEA)
  Emax: 113 ± 2.5%
[1]; CryoEM Construct, n=2, read-out: pEC50 ± SEM (converted)
  EC50: 240 nM
